What was measured:
[1] = molecular target: T1, FimH-CRD (Escherichia coli, UniProt P08191); assay: Competitive binding assay by fluorescence polarization, assay 2 (compounds prepared by a robotics system, plates frozen and thawed); set-up: species or system E. coli
T1 construct: The first 177 amino acids of the FimH protein are expressed as a fusion protein; thrombin tag (printed as 'fusion protein with thrombin') (cleaved yes); made in house; host or cells: bacteria (pET21b plasmid)
Outline: (§1)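 FimH-CRD (residues 1-177, tag removed) at 60 nM competed against 5 nM Alexa 647 mannoside probe in 50 mM Tris-Cl pH 7.0, 100 mM NaCl, 1 mM EDTA, 5 mM β-mercaptoethanol, 0.05% BSA, 2.5% DMSO; 5 h, room temperature, dark. Compounds 0.4 nM-75 μM final, 12-point 3-fold, duplicate; Kd from fluorescence polarization displacement curves. Assay 1: manual dilution; assay 2: robotic dilution, plates frozen/thawed.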

[2] = molecular target: T1, FimH-CRD; assay: Competitive binding assay by fluorescence polarization, assay 1 (compounds prepared by manual dilution); set-up: species or system E. coli
Outline: as §1

Measured: Kd

T1 sequence (P08191 22-177): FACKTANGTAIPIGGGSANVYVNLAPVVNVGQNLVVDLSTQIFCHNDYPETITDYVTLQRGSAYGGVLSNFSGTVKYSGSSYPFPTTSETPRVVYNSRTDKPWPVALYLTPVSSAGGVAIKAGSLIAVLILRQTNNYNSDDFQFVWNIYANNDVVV

OC[C@H]1O[C@H](Cc2ccc(-c3ccc(C[C@H]4O[C@H](CO)[C@@H](O)[C@H](O)[C@@H]4O)cc3)cc2)[C@@H](O)[C@@H](O)[C@@H]1O [Compound 41, ((2R,3S,4R,5S,6R)-2-(Hydroxymethyl)-6-[[4-[4-[[(2R,3S,4R,5S,6R)-3,4,5-trihydroxy-6-(hydroxymethyl)tetrahydropyran-2-yl]methyl]phenyl]phenyl]methyl]tetrahydropyran-3,4,5-triol)]
< 5 nM: [1]; Assay 2 Kd, 5 nM Alexa 647 mannoside probe, 60 nM FimH-CRD, replicate values in one cell | [1]; read-out: Assay 2 Kd, 5 nM Alexa 647 mannoside probe, 60 nM FimH-CRD, replicate values in one cell | [2]; Assay 1 Kd, 5 nM Alexa 647 mannoside probe, 60 nM FimH-CRD, replicate values in one cell | [2]; read-out: Assay 1 Kd, 5 nM Alexa 647 mannoside probe, 60 nM FimH-CRD, replicate values in one cell
